The results in this text go back to US8703722B2, “Inhibitors of F18+ E coli binding” (priority 2008, dated 2014).

Test [1] concerns F18 positive reference E. coli strain (107/86). Briefly: In vitro villous adhesion assay after treatment of porcine villi with agents. In kind it is cell-based, Escherichia coli. The conditions noted are these: villi of four pigs treated 1 h at room temperature; 1% Triton X-100; 10 mM NaIO4 in 0.2M sodium acetate pH 4.5. From the text:
(§1) The nature of the F18R on porcine small intestinal villous enterocytes was investigated using an in vitro villous adhesion inhibition assay (Cox, E., Houvenaghel, A., 1993. Vet. Microbiol. 34(1), 7-18; Verdonck, F., Cox, E., van Gog, K., Van der Stede, Y., Duchateau, L., Deprez, P., Goddeeris, B. M., 2002. Vaccine 20(23-24), 2995-3004). Briefly, a 20 cm intestinal segment was collected from the mid jejunum of a euthanized pig, rinsed three times with ice cold PBS, and fixed with Krebs-Henseleit buffer (160 mM, pH 7.4) containing 1% (v/v) formaldehyde for 30 min at 4° C. Thereafter, the villi were gently scraped from the mucosae with a glass slide and stored in Krebs-Henseleit buffer at 4° C. Treatment of villi with acetone, methanol, 1% Triton® X-100, 10 mM NaIO4 in 0.2M sodium acetate, pH 4.5, or 0.2M sodium acetate, pH 4.5, without NaIO4, respectively, was performed at room temperature on a rotating wheel in a volume of 500 μl during 1 h. Next, the villi were washed 6 times with Krebs-Henseleit buffer followed by addition of 4×10^8 bacteria of the F18 positive reference E. coli strain (107/86), or the F4ac-expressing E. coli strain GIS 26, to an average of 50 villi in a total volume of 500 μl PBS, supplemented with 1% (w/v) D-mannose in order to prevent adhesion mediated by type 1 pili. These mixtures were incubated at room temperature for 1 h while being gently shaken. Villi were examined by phase-contrast microscopy at a magnification of 600, and the number of bacteria adhering along 50 μm brush border was quantitatively evaluated by counting the number of adhering bacteria at 20 randomly selected places, after which the mean bacterial adhesion was calculated.
(§2) To examine the character of the F18R, intestinal villi isolated from four pigs were treated with different agents that affect lipids or carbohydrates on the enterocyte cell membrane. Treatment was followed by assessment of adhesion of F18-fimbriated E. coli to the villus epithelium.

Test [2] has as its system F4ac-expressing E. coli strain GIS 26. As to the kind of experiment: In vitro villous adhesion assay after treatment of porcine villi with agents (control strain). In kind it is cell-based, Escherichia coli. As to conditions: villi treated 1 h at room temperature; 1% Triton X-100; 10 mM NaIO4 in 0.2M sodium acetate pH 4.5.
Source text: as §1, §2

Take `[Na+].[O-][I+3]([O-])([O-])[O-]` [NaIO4]: the “Adhesion of F18-fimbriated E. coli to porcine intestinal villi after treatment of the villi” value (from here on “Adhesion of F18-fimbriated E. coli”) in test [1] is recorded as “completely abolished”. Moreover, in test [2], the “Adhesion of control F4ac-fimbriated E. coli strain to porcine intestinal villi after treatment of the villi” value was “abolished”.
Consider `CC(C)=O` [acetone], for which the “Adhesion of F18-fimbriated E. coli” value in test [1] is “completely abolished”. Also, in test [2], the “Adhesion of control F4ac-fimbriated E. coli strain to porcine intestinal villi after treatment of the villi” value is “no or only little effect”.
As to `CO` [methanol], the “Adhesion of F18-fimbriated E. coli” value in test [1] is recorded as “completely abolished”. The “Adhesion of control F4ac-fimbriated E. coli strain to porcine intestinal villi after treatment of the villi” value in test [2] is recorded as “no or only little effect”.
Consider Triton® X-100, for which the “Adhesion of F18-fimbriated E. coli” value in test [1] is listed as “completely abolished”. In test [2], the “Adhesion of control F4ac-fimbriated E. coli strain to porcine intestinal villi after treatment of the villi” value was “no or only little effect”.
